Results from article PMC7936271, “Discovery and characterization of bromodomain 2–specific inhibitors of BRDT” (Proceedings of the National Academy of Sciences of the …, 2021).
Values joined by “and” are separate entries in the source; they are usually repeats but may differ in a detail not shown here. Identical values can stand only once. “Also recorded” adds a separate entry of the source. Like-named read-outs stand apart in the source and are kept apart here.

Columns and labels:
[1] = molecular target: BRDT-BD2
[2] = molecular target: BRDT-BD1
[3] = molecular target: BRDT-BD2 (Homo sapiens, UniProt Q58F21); assay: AlphaScreen competition assay with biotinylated JQ1, BRDT-BD2; assay type: binding; set-up: BRDT-BD2, NP_001717.3 amino acid 269− 380; made in house; host or cells: E. coli NiCo21 (DE3); conditions: for BRDT-BD2 activity / affinity: result in words
[4] = molecular target: BRD4-BD2
[5] = molecular target: BRD4-BD1
[6] = molecular target: T1, BRDT-BD1 (Homo sapiens, UniProt Q58F21); assay: AlphaScreen competition assay with biotinylated JQ1, BRDT-BD1; assay type: binding
T1 construct: NP_001717.3 amino acid 21− 137; made in house; host or cells: E. coli NiCo21 (DE3)

[7] = molecular target: T2, BRD4-BD1 (Homo sapiens, UniProt O60885); assay: AlphaScreen competition assay with biotinylated JQ1, BRD4-BD1; assay type: binding
T2 construct: amino acid 44− 168; made in house; host or cells: E. coli NiCo21 (DE3)

[8] = Metabolic stability assay in mouse liver microsomes; assay type: in vitro ADME; conditions: for t1/2, min MLM / half-life at 2 μM: mouse liver microsomes, 2.0 μM, 37 °C, data >60 min are an extrapolated estimate; for half-life at 2 μM: read-out: t1/2, min MLM; for mouse microsomal stability: result in words
Description: (§1) 2d) Metabolic stability assay in liver microsomes. […]
(§2) The reactions are terminated by adding equivalent
(§3) volume of ice-cold CH3OH and vortexed.
(§4) temperature was ma i ntained at 40 °C.
(§5) (acetonitrile containing 0.1% formic acid). […]

[9] = Metabolic stability assay in human liver microsomes; assay type: in vitro ADME; conditions: for t1/2, min HLM / half-life at 2 μM: human liver microsomes, 2.0 μM, 37 °C, data >60 min are an extrapolated estimate; for half-life at 2 μM: read-out: t1/2, min HLM
Description: as §1, §2, §3, §4, §5

[10] = molecular target: BRD4-BD2 (Homo sapiens, UniProt O60885); assay: AlphaScreen competition assay with biotinylated JQ1, BRD4-BD2; assay type: binding; set-up: BD2, NP_055114.1 amino acid 333− 460; made in house; host or cells: E. coli NiCo21 (DE3)
[11] = AlphaScreen, biotinylated JQ1 as ligand, NE: no effect at 20 µM
[12] = AlphaScreen, biotinylated JQ1 as ligand
[13] = ratio of AlphaScreen IC50 values

COc1ccc(NC(=O)c2ccc3c(c2)c(-c2cc4ccccc4n2C)nn3C)c(C)c1
IC50 [1]: 0.183 µM

COc1ccc(NC(=O)c2ccc3c(c2)c(-c2cc4ccccc4n2C)nn3C)cc1
IC50 [1]: 0.121 µM

COc1ccc(NC(=O)c2ccc3nn(C)c(-c4ccc(N)cc4C)c3c2)cc1 [Compound 27]
IC50 [1]: 17.2 µM | IC50 [2]: > 10 µM | BRDT-BD2 activity / affinity ([3]; AlphaScreen): dramatic loss of activity; also recorded: inactivity

CC(=O)Nc1cc(NC(=O)c2ccc3c(c2)c(-c2ccc(N)nc2)nn3C(C)C)ccc1C
IC50 [1]: 0.253 µM | IC50 [2]: > 10 µM

COc1ccc(N(C)C(=O)c2ccc3c(c2)c(-c2ccc(N)cc2C)nn3C)cc1 [Compound 26]
IC50 [1]: > 1 µM | IC50 [2]: > 10 µM | BRDT-BD2 activity / affinity ([3]; AlphaScreen): loss of potency

CC(=O)Nc1cccc(NC(=O)c2ccc3c(c2)c(-c2ccc(N)cc2C)nn3C)c1 [Compound 21]
IC50 [1]: 0.014 µM | IC50 [2]: > 10 µM and 19.7 µM | IC50 [4]: 0.021 µM | IC50 [5]: 14.1 µM | IC50 [6, 11]: 19700 nM | IC50 [7, 11]: 14100 nM | t1/2, min MLM [8]: 0.15 h | t1/2, min HLM [9]: 3 h | BRD4-BD2 vs. BRD4-BD1 (BRD4-BD2 selectivity) [10]: 670 | IC50 [10, 12]: 21 nM | BRDT-BD2 vs. BRDT-BD1 (BRDT-BD2 selectivity) [3]: 1,400 | IC50 [3, 12]: 14 nM | BRDT-BD2 activity / affinity ([3]; AlphaScreen): minimal effects on potency | BRDT-BD2 vs. BRD4-BD2 [3, 13]: 1.5

COc1ccc(NC(=O)c2ccc3c(c2)c(-c2ccc(N)cc2C)nn3C)cc1 [Compound 24]
IC50 [1]: 0.054 µM | BRDT-BD2 activity / affinity ([3]; AlphaScreen): dramatic loss of activity

COc1ccc(NC(=O)c2ccc3c(c2)c(-c2ccc(N)cc2C)nn3C)cc1NC(=O)c1ccccc1
IC50 [1]: 0.035 µM

CNC(=O)c1ccc(C(=O)Nc2cc(NC(=O)c3ccc4c(c3)c(-c3ccc(N)cc3C)nn4C)ccc2OC)cc1
IC50 [1]: 0.012 µM | IC50 [2]: > 10 µM

COc1ccc(NC(=O)c2ccc3c(c2)c(-c2cc4ccccc4n2C)nn3C)cc1Cl
IC50 [1]: 0.164 µM

CNC(=O)c1ccc(C(=O)Nc2cc(NC(=O)c3ccc4c(c3)c(-c3ccc(N)nc3)nn4C)ccc2C)cc1 [Compound 10]
IC50 [1]: 0.017 µM | % inhibition at 10 µM [2]: 16% | IC50 [2]: > 10 µM | IC50 [4]: 0.046 µM | % inhibition at 10 µM [5]: 20% | IC50 [5]: > 10 µM | inhibition at 10 µM ([6]; read-out: Inhibition at 10 µM for BRDT-BD1): 16% | IC50 [7]: > 10000 nM | inhibition at 10 µM ([7]; read-out: Inhibition at 10 µM for BRD4-BD1): 20% | half-life at 2 μM [8]: 3.17 h | mouse microsomal stability [8]: high metabolic stability; also recorded: high mouse microsomal stability | half-life at 2 μM [9]: 4 h | human microsomal stability ([9]; result in words): high metabolic stability | IC50 [10]: 46 nM | BRD4-BD2 vs. BRD4-BD1 (BRD4-BD2 selectivity) [10, 13]: >210 | IC50 [3]: 17 nM | BRDT-BD2 activity / affinity ([3]; AlphaScreen): slightly lower affinity than CDD-1102 | BRDT-BD2 vs. BRD4-BD2 [3, 13]: 2.7 | BRDT-BD2 vs. BRDT-BD1 (BRDT-BD2 selectivity) [3, 13]: >600

COc1ccc(NC(=O)c2ccc3c(c2)c(-c2cc4ccccc4n2C)nn3C)c(OC)c1
IC50 [1]: 0.926 µM

CC(=O)Nc1cc(NC(=O)c2ccc3c(c2)c(-c2ccc(N)nc2)nn3C)ccc1C [Compound 17]
IC50 [1]: 0.047 µM | IC50 [2]: > 10 µM and 36.2 µM | IC50 [4]: 0.051 µM | IC50 [5]: 25.1 µM | IC50 [6, 11]: 36200 nM | IC50 [7, 11]: 25100 nM | t1/2, min MLM [8]: 3.33 h | mouse microsomal stability [8]: high mouse microsomal stability | t1/2, min HLM [9]: 8.17 h | BRD4-BD2 vs. BRD4-BD1 (BRD4-BD2 selectivity) [10]: 490 | IC50 [10, 12]: 51 nM | BRDT-BD2 vs. BRDT-BD1 (BRDT-BD2 selectivity) [3]: 770 | IC50 [3, 12]: 47 nM | BRDT-BD2 vs. BRD4-BD2 [3, 13]: 1.1

CNC(=O)c1ccc(C(=O)Nc2cc(NC(=O)c3ccc4c(c3)c(-c3ccccc3C)nn4C)ccc2OC)cc1
IC50 [1]: 0.061 µM | IC50 [2]: 6.3 µM

CNC(=O)c1ccc(C(=O)Nc2cc(NC(=O)c3ccc4c(c3)c(-c3ccc(C)cc3C)nn4C)ccc2OC)cc1
IC50 [1]: 0.026 µM

COc1ccc(NC(=O)c2ccc3c(c2)c(-c2cc4ccccc4n2C)nn3C)cc1OC
IC50 [1]: 0.101 µM

COc1ccc(NC(=O)c2ccc3c(c2)c(-c2cc4ccccc4n2C)nn3C)cc1F
IC50 [1]: 0.119 µM

CNC(=O)c1ccc(C(=O)Nc2cc(NC(=O)c3ccc4c(c3)c(-c3cnc(N)nc3)nn4C)ccc2C)cc1 [Compound 13]
IC50 [1]: 0.139 µM | IC50 [2]: > 10 µM | BRDT-BD2 activity / affinity ([3]; AlphaScreen): lower affinity than compound 10

CNC(=O)c1cc(NC(=O)c2ccc3c(c2)c(-c2ccc(N)cc2C)nn3C)ccc1C [Compound 22]
IC50 [1]: 0.018 µM | IC50 [2]: > 10 µM and 10.7 µM | IC50 [4]: 0.02 µM | IC50 [5]: 10.9 µM | IC50 [6]: 10700 nM | IC50 [7]: 10900 nM | half-life at 2 μM [8]: 2.5 h | mouse microsomal stability [8]: high mouse microsomal stability | half-life at 2 μM [9]: 7.67 h | IC50 [10]: 20 nM | BRD4-BD2 vs. BRD4-BD1 (BRD4-BD2 selectivity) [10, 13]: 540 | IC50 [3]: 18 nM | BRDT-BD2 activity / affinity ([3]; AlphaScreen): minimal effects on potency | BRDT-BD2 vs. BRD4-BD2 [3, 13]: 1.1 | BRDT-BD2 vs. BRDT-BD1 (BRDT-BD2 selectivity) [3, 13]: 590

COc1ccc(NC(=O)c2ccc3c(c2)c(-c2cc4ccccc4n2C)nn3C)cc1C
IC50 [1]: 0.111 µM

CNC(=O)c1ccc(C(=O)Nc2cc(NC(=O)c3ccc4c(c3)c(-c3cc5ccccc5n3C)nn4C)ccc2OC)cc1 [Compound 3]
IC50 [1]: 0.022 µM | BRDT-BD2 activity / affinity ([3]; AlphaScreen): low nanomolar affinity

CC(=O)Nc1cc(NC(=O)c2ccc3c(c2)c(-c2cnc(N)cc2C)nn3C)ccc1C
IC50 [1]: 0.126 µM

Cc1cc(N)ccc1-c1nn(C)c2ccc(C(=O)Nc3ccccc3)cc12
IC50 [1]: 0.09 µM | IC50 [2]: > 10 µM

CNC(=O)c1ccc(C(=O)Nc2cc(NC(=O)c3ccc4c(c3)c(-c3ccc(N)cc3)nn4C)ccc2OC)cc1
IC50 [1]: 0.015 µM | IC50 [2]: > 10 µM

CNC(=O)c1ccc(C(=O)Nc2cc(NC(=O)c3ccc4c(c3)c(-c3cnc(N)cc3C)nn4C)ccc2C)cc1 [Compound 15]
IC50 [1]: 0.022 µM | IC50 [4]: 0.14 µM | IC50 [6, 11]: > 20000 nM | IC50 [7, 11]: > 20000 nM | t1/2, min MLM [8]: 2.5 h | mouse microsomal stability [8]: high mouse microsomal stability | t1/2, min HLM [9]: 3.67 h | BRD4-BD2 vs. BRD4-BD1 (BRD4-BD2 selectivity) [10]: >140 | IC50 [10, 12]: 140 nM | IC50 [3, 12]: 22 nM | BRDT-BD2 activity / affinity ([3]; AlphaScreen): lower affinity than compound 10 | BRDT-BD2 vs. BRD4-BD2 ([3]; ratio of AlphaScreen IC50 values, listed as 15 (CDD-1349)): 6.4 | BRDT-BD2 vs. BRD4-BD2 ([3]; ratio of AlphaScreen IC50 values, listed as CDD-1349): sixfold

COc1ccc(NC(=O)c2ccc3c(c2)c(-c2cc4ccccc4n2C)nn3C)c(Cl)c1
IC50 [1]: > 1.25 µM

CNC(=O)c1ccc(C(=O)Nc2cc(NC(=O)c3ccc4c(c3)c(-c3ccncc3)nn4C)ccc2C)cc1 [Compound 12]
IC50 [1]: 0.978 µM | BRDT-BD2 activity / affinity ([3]; AlphaScreen): weaker-binding

CCn1nc(-c2ccc(N)nc2)c2cc(C(=O)Nc3ccc(C)c(NC(C)=O)c3)ccc21
IC50 [1]: 0.079 µM | IC50 [2]: > 10 µM

CNC(=O)c1ccc(C(=O)Nc2cc(NC(=O)c3ccc4c(c3)c(-c3ccc(N)nc3C)nn4C)ccc2C)cc1 [Compound 14]
IC50 [1]: 0.094 µM | BRDT-BD2 activity / affinity ([3]; AlphaScreen): lower affinity than compound 10

COc1ccc(NC(=O)c2ccc3c(c2)c(-c2cc4ccccc4n2C)nn3C)c(F)c1
IC50 [1]: 0.203 µM

CNC(=O)c1ccc(C(=O)Nc2cc(NC(=O)c3ccc4c(c3)c(-c3ccc(OC)cc3)nn4C)ccc2C)cc1
IC50 [1]: 0.521 µM | IC50 [2]: > 10 µM
